Laboratory results as given in patent US20140235500A1, “HIGH THROUGHPUT INSTRUMENTATION TO SCREEN CELLS AND PARTICLES BASED ON THEIR MECHANICAL PROPERTIES” (The Regents of the University of California, priority 2011, published 2014).

Tests used:
[1] = test system: human promyelocytic leukemia (HL60) cells; assay: Flow of cells through constricted microfluidic channels (deformation time); type: cell-based; details: HL60 cells treated with drug to perturb actin network; narrow constrictions
Source text: To dissect the contributions of nuclear physical properties to whole cell deformability, human promyelocytic leukemia (HL60) cells provide a convenient model system. These cells can be readily differentiated into neutrophil-type cells in vitro. During this process of granulopoiesis, the cell nucleus undergoes major changes in morphology as it transitions from an ovoid to an irregular, multi-lobed structure.
In addition to these induced changes in nuclear morphology, cytoskeletal protein expression is also altered. Levels of actin increase during differentiation, and cortical actin is implicated in the resistance of these cells to out-of-plane deformations. To determine the contributions of actin to cellular deformation, cells were treated with a drug (cytochalasin B) to perturb their actin network. […] One determinant of nucleus shape stability is the intermediate filament type protein, lamin A. This protein is a major constituent of the meshwork underlying the nuclear envelope, and its expression levels are directly linked to nuclear mechanical properties.

OVCAR5 cells = assay: HTMS measurement of drug treatment on ovarian cancer cells; type: cell-based; details: OVCAR5-CIS+ cells treated for <1 day; 0.4 psi for 35 s; FIG. 32
Source text: FIG. 32 illustrates the use of HTMS measurements to detect the effects of drug treatment on cancer cells. Data: 0.4 psi for 35 s.
In addition, the HTMS systems described herein can be used to monitor the progression of drug treatments. Ovarian cancer cells: SKOV3 and OVCAR5 are cisplatin sensitive, while SKOV3-CISR and OVCAR5-CISR are cisplatin resistant.

HL60 cells = assay: High throughput mechanical screening (HTMS): cell passage through porous membrane under applied pressure; type: cell-based, human; details: for cell deformability: FIG. 27
Source text: An initial prototype device (see, e.g., FIGS. 9-16) was machined out of polymethylmethacrylate (McMaster Carr) in the format of a 96-well plate containing: a porous membrane sandwiched between a bottom, multiwell collection plate, and a top loading plate. A pressure chamber seals the device and interfaces with a compressed air tank (see, e.g., FIG. 17).
In the initial prototype device, we use track-etched, polycarbonate membranes with 5 μm pore size (Millipore). To minimize adhesion, surface treatment with 10 mg/mL bovine serum albumin was performed prior to the experiment. To load the device, cells were deposited on top of the porous membrane in each individual well. The optimal loading density of cells was established iteratively with detection: a loading density of ˜10^6 cells/mL was optimal given the estimated lower detection limit of 10^2 cells/mL using a flow cytometer.
Once the device was loaded, the pressure chamber lid was placed on top to create a pressure-tight seal, and tubing was connected to a tank of compressed air with 5% CO2 that was outfitted with a pressure gauge (0-30 psi, 0.2 psi resolution, Airgas). An electro-pneumatic regulator (0-20 psi output, Omega) enabled precise control of the magnitude and duration of applied pressure for sub-second periods of time via control through LabVIEW. Pressures between 5-10 psi were estimated to generate ˜kPa-scale stresses required to deform cells with elastic moduli in the kPa range.
After applying pressure to induce deformation of cells through the pores, the number of passaged cells was counted. We used a flow cytometer to count cells in the individual wells of a 96-well plate using scattered light (forward versus side scatter) as a signal (LSRII flow cytometer, BD Biosciences). An entire 96-well plate was counted within 15 minutes.
(§1) As shown in FIG. 27 the effect of various anti-cancer drugs (e.g., cytochalisin D, paclitaxel, daunorubicin, colchicine) can readily be detected using the HTMS systems described herein. […] Without being bound by a particular theory, it is believed that that the changes in mechanical properties are produced by the action of the drugs on cytoskeletal elements (e.g., actin filaments). Similarly, as shown in FIG. 28 the HTMS measurements made herein can be used to detect dose-response effects of various agents (e.g., anti-cancer drugs) on cells. In this experiment, HL60 cells were treated with 10.0 μM colchicine. Without being bound by a particular theory it is believed that colchicine perturbs microtubules at low concentrations and stabilizes F-actin at high concentrations.

[2] = test system: adherent murine mammary carcinoma cells (67NR); assay: HTMS measurement on adherent carcinoma cells; type: cell-based; details: 67NR cells; FIG. 29
Source text: FIG. 29 illustrates the effect of various drugs on adherent murine mammary carcinoma cells (67NR).
as §1

In the case of `C=C1[C@@H](C)[C@H]2[C@H](Cc3ccccc3)NC(=O)[C@]23OC(=O)/C=C/[C@H](O)CCC[C@@H](C)C/C=C/[C@H]3[C@@H]1O` [cytochalasin B], the “difference in cellular deformation between treated and non-treated controls” value [1] was “no detectable difference”.
`N.N.[Cl][Pt][Cl]` [cisplatin] was tested, and the “difference in HTMS measurement compared with OVCAR5 cells” value (OVCAR5 cells) was “no apparent difference”.
With `C=C1[C@@H](C)[C@H]2[C@H](Cc3ccccc3)NC(=O)[C@]23[C@H](OC(C)=O)/C=C/[C@@](C)(O)C(=O)[C@@H](C)C/C=C/[C@H]3[C@@H]1O` [cytochalasin D] the cell deformability (HL60 cells; HL60 cells, 2.0 μM) was “increase cell deformability”.
With `CC(=O)O[C@H]1C(=O)[C@@]2(C)[C@H]([C@H](OC(=O)c3ccccc3)[C@]3(O)C[C@H](OC(=O)[C@H](O)[C@@H](NC(=O)c4ccccc4)c4ccccc4)C(C)=C1C3(C)C)[C@]1(OC(C)=O)CO[C@@H]1C[C@@H]2O` [paclitaxel] the cell deformability (HL60 cells; HL60 cells, 1.5 μM) was “increase cell deformability”.
For `CC1=C(/C=C/C(C)=C/C=C/C(C)=C/C(=O)O)C(C)(C)CCC1` [ATRA], the “pressure dependence of cell passage versus HL60 cells” value (HL60 cells; neutrophil-type (ATRA-treated) cells, FIG. 25) was “different pressure dependence”.
In the case of `COc1cccc2c1C(=O)c1c(O)c3c(c(O)c1C2=O)C[C@@](O)(C(C)=O)C[C@@H]3O[C@H]1C[C@H](N)[C@H](O)[C@H](C)O1` [dauorubicin], the cell deformability (HL60 cells; HL60 cells, 1.0 μM) was “decrease the deformability”.
`COc1cc2c(c(OC)c1OC)-c1ccc(OC)c(=O)cc1[C@@H](NC(C)=O)CC2` [colchicine] was tested, and the “dose response effects on cell mechanical properties” value [2] was “Dose response effects of colchicine are also observed”, the cell deformability (HL60 cells; HL60 cells, 10.0 μM) was “decrease the deformability” and the “cell stiffness (dose response)” value (HL60 cells; HL60 cells, low drug concentration, FIG. 28) was “increased cell stiffness”.
